According to the NIST ThermoML archive (doi:10.1021/je060184i):
Numbers after ± are expanded uncertainties.

Legend:
[1] = Liquid, Closed cell (Static) method
[2] = excess molar enthalpy (molar enthalpy of mixing); xn = mol fraction of the nth substance listed; settings: 298.15 K, 101 kPa, Liquid, Flow calorimetry

CCCCCCC [heptane]
[1]
Settings	vapor or sublimation pressure [kPa]
273.15 K	1.531 ± 0.02
283.15 K	2.76 ± 0.025
293.15 K	4.736 ± 0.034
298.15 K	6.104 ± 0.04
303.15 K	7.787 ± 0.049
313.15 K	12.32 ± 0.07
323.15 K	18.85 ± 0.1
333.15 K	27.99 ± 0.15
343.15 K	40.43 ± 0.21
353.15 K	56.99 ± 0.29
363.15 K	78.59 ± 0.4

CCCOC(C)=O [propyl ethanoate] + C1CCCCC1
[2]
Settings	excess molar enthalpy [kcal/mol]
x1 = 0.1031	0.127 ± 0.00263
x1 = 0.1888	0.195 ± 0.00287
x1 = 0.2926	0.244 ± 0.00311
x1 = 0.3829	0.265 ± 0.00311
x1 = 0.4249	0.268 ± 0.00311
x1 = 0.4667	0.269 ± 0.00311
x1 = 0.4876	0.267 ± 0.00311
x1 = 0.5084	0.265 ± 0.00311
x1 = 0.5827	0.252 ± 0.00311
x1 = 0.6881	0.215 ± 0.00287
x1 = 0.7883	0.163 ± 0.00263
x1 = 0.8945	0.0901 ± 0.00263

C1CCCCC1 [cyclohexane]
[1]
Settings	vapor or sublimation pressure [kPa]
263.15 K	2.082 ± 0.023
273.15 K	3.73 ± 0.03
283.15 K	6.357 ± 0.043
293.15 K	10.37 ± 0.064
298.15 K	13.04 ± 0.078
303.15 K	16.26 ± 0.096
313.15 K	24.65 ± 0.14
323.15 K	36.24 ± 0.2
333.15 K	51.85 ± 0.28
343.15 K	72.39 ± 0.39
353.15 K	98.85 ± 0.53
363.15 K	132.33 ± 0.71

CCCOC(C)=O [propyl ethanoate]
[1]
Settings	vapor or sublimation pressure [kPa]
263.15 K	0.4981 ± 0.01
273.15 K	1.006 ± 0.018
283.15 K	1.909 ± 0.022
293.15 K	3.43 ± 0.029
298.15 K	4.514 ± 0.034
303.15 K	5.875 ± 0.041
313.15 K	9.645 ± 0.06
323.15 K	15.25 ± 0.09
333.15 K	23.33 ± 0.13
343.15 K	34.64 ± 0.19
353.15 K	50.07 ± 0.28
363.15 K	70.64 ± 0.38

C=CCCCC [hex-1-ene]
[1]
Settings	vapor or sublimation pressure [kPa]
273.15 K	7.687 ± 0.051
283.15 K	12.64 ± 0.076
293.15 K	19.98 ± 0.12
298.15 K	24.77 ± 0.14
303.15 K	30.46 ± 0.17
313.15 K	44.98 ± 0.25
323.15 K	64.6 ± 0.35
333.15 K	90.44 ± 0.49
343.15 K	123.79 ± 0.67
353.15 K	165.99 ± 0.89
363.15 K	218.5 ± 1.2

CCCOC(C)=O [propyl ethanoate] + CCCCCCC
[2]
Settings	excess molar enthalpy [kcal/mol]
x1 = 0.1087	0.121 ± 0.00263
x1 = 0.1348	0.143 ± 0.00263
x1 = 0.2399	0.214 ± 0.00287
x1 = 0.3594	0.259 ± 0.00311
x1 = 0.457	0.273 ± 0.00311
x1 = 0.5004	0.273 ± 0.00311
x1 = 0.5217	0.272 ± 0.00311
x1 = 0.5427	0.27 ± 0.00311
x1 = 0.5634	0.266 ± 0.00311
x1 = 0.5838	0.262 ± 0.00311
x1 = 0.6544	0.244 ± 0.00311
x1 = 0.7495	0.202 ± 0.00287
x1 = 0.8346	0.15 ± 0.00263
x1 = 0.92	0.0807 ± 0.00263
x1 = 0.9526	0.0495 ± 0.00239

C=CCCCC [hex-1-ene] + CCCOC(C)=O
[2]
Settings	excess molar enthalpy [kcal/mol]
x2 = 0.0943	0.062 ± 0.00239
x2 = 0.2122	0.114 ± 0.00263
x2 = 0.3238	0.141 ± 0.00263
x2 = 0.418	0.151 ± 0.00263
x2 = 0.4609	0.152 ± 0.00263
x2 = 0.4822	0.152 ± 0.00263
x2 = 0.5032	0.151 ± 0.00263
x2 = 0.5241	0.15 ± 0.00263
x2 = 0.5449	0.148 ± 0.00263
x2 = 0.6178	0.139 ± 0.00263
x2 = 0.7186	0.117 ± 0.00263
x2 = 0.8117	0.0874 ± 0.00263
x2 = 0.9076	0.0475 ± 0.00239
